Results as given in article PMC7954447 (Science Advances, 2021).

Biological target: human α7 nicotinic ACh receptor (nAChR) (Homo sapiens, UniProt P36544)
Format: cell-based

Sequence of human α7 nicotinic ACh receptor (nAChR) (P36544 23-502): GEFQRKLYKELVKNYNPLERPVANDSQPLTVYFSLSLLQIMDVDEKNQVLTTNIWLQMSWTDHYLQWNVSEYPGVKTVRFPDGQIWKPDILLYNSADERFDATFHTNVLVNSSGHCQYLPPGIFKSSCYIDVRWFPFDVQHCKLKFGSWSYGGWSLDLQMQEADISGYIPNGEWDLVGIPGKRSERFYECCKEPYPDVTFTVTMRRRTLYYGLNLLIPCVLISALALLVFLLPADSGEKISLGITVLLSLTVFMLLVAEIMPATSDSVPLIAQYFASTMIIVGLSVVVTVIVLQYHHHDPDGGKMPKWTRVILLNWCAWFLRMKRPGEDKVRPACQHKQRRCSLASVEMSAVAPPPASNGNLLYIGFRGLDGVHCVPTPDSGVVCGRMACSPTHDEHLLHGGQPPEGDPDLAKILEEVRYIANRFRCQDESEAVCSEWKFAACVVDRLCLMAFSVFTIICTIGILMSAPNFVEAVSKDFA

Conazolium A [compound 1]
IC50: 24.4 µM
